The values that follow are results of earlier work, collected in paper PMC5517430, “2,3,7,8-Tetrachlorodibenzo-p-dioxin (TCDD)-elicited effects on bile acid homeostasis: Alterations in biosynthesis, enterohepatic circulation, and microbial metabolism” (Scientific Reports, 2017).

SMILES strings stand for the structures.

This data set concerns FXR. Also noted: method as in PMID 23395169. As to conditions: cited from earlier work.

Consider `C[C@H](CCC(=O)NCCS(=O)(=O)O)[C@H]1CC[C@H]2[C@@H]3[C@H](O)[C@@H](O)[C@@H]4C[C@H](O)CC[C@]4(C)[C@H]3CC[C@]12C` [T-α-MCA, tauro-α-muricholic acid], for which the FXR antagonism result is listed as “competitive antagonists”.
In the case of `C[C@H](CCC(=O)NCCS(=O)(=O)O)[C@H]1CC[C@H]2[C@@H]3[C@@H](O)[C@@H](O)[C@@H]4C[C@H](O)CC[C@]4(C)[C@H]3CC[C@]12C` [T-β-MCA], the FXR antagonism entry is “competitive antagonists”.
